The record followed here is patent US20110306580A1 (DONG WHA PHARMACEUTICAL CO ., LTD., priority 2009, published 2011).

The test system of the test is ROS17/2.8 cells. The test can be described thus: Cell growth of ROS17/2.8 cells by the MTT method (formed formazan). It counts as cell-based, rat. Conditions: for activity at 0.02 µM: Rattus norvegicus, 2×10^−5M Test Compound solution diluted 1000 fold, read-out: Amount of formed formazan, Solution 8 (Test Compound alone); for activity at 0.02 µM / Amount of formed formazan, Solution 10 (a group of a drug combination): percentage to Solution 7 addition group, about 48 hours, average ± standard deviation of four wells; for Relative index of Solution 10 (a group of a drug combination) / Amount of formed formazan, Solution 10 (a group of a drug combination): Test Compound in combination with 1α,25-dihydroxyvitamin D3; for Relative index of Solution 10 (a group of a drug combination) / Relative index of Solution 8 (Test Compound alone): amount of formed formazan, Solution 7 = 1.00. How it is done:
100 μL of a 10% FCS-αMEM comprising either DMSO and ethanol (referred to as Solution 7, hereinafter), a Test Compound solution and ethanol (referred to as Solution 8, hereinafter), a 1α,25-dihydroxyvitamin D3 solution and DMSO (referred to as Solution 9, hereinafter) or a Test Compound solution and the 1α,25-dihydroxyvitamin D3 solution (referred to as Solution 10, hereinafter) was dispensed. The ROS17/2.8 cells were inoculated to a medium at a density of 5×10^3 cells/100 μL/well. After culture of the cells for about 48 hours, the effect of Test Compound and 1α,25-dihydroxyvitamin D3 on the cell growth of the ROS17/2.8 cells was evaluated using the MTT method. Namely, after culture of the cells for about 44 hours, an MTT solution (3-[4,5-dimethylthiazol-2-yl]-2,5-diphenyltetrazolium bromide 2 mg/mL) was added in an amount of 25 μL/well, and the cells were further cultured for four hours. After the medium was removed, DMSO was added in an amount of 100 μL/well so as to dissolve the formed formazan. The amount of the formed formazan was determined by measuring the absorbance (at 560 nm) of the solution by a microplate reader.
The 10% FCS-αMEM comprising Solution 7 was prepared by diluting DMSO by 1000 fold with the 10% FCS-αMEM, and diluting ethanol by 10000 fold with the 10% FCS-αMEM. The 10% FCS-αMEM comprising Solution 8 was prepared by diluting a 2×10^−5M Test Compound solution by 1000 fold with the 10% FCS-αMEM, and diluting ethanol by 10000 fold with the 10% FCS-αMEM. The 10% FCS-αMEM comprising Solution 9 was prepared by diluting 2×10^−3M 1α,25-dihydroxyvitamin D3 solution by 10000 fold with the 10% FCS-αMEM, and diluting DMSO by 1000 fold with the 10% FCS-αMEM. The 10% FCS-αMEM comprising Solution 10 was prepared by diluting a 2×10^−5M Test Compound solution by 1000 fold with the 10% FCS-αMEM, and diluting 2×10^−3M 1α,25-dihydroxyvitamin D3 solution by 10000 fold with the 10% FCS-αMEM.
The amount of the formed formazan in each solution addition group was obtained in terms of a percentage to the average value of the amounts of formed formazan in four wells in a Solution 7 addition group. All the determined values were shown in terms of the average value±standard deviation of the four wells of each solution addition group.

For `CCc1sc(N(C)Cc2ccccc2)nc1-c1ccc(OCCCCCOc2ccc(/C(N)=N/O)cc2)cc1` [Compound 10, N-hydroxy-4-{5-[4-(2-benzylmethylamino-5-ethyl-1,3-thiazol-4-yl)phenoxy]pentoxy}benzamidine], the activity at 0.02 µM is 99 ± 2.5%; the “Relative index of Solution 10 (a group of a drug combination)” value turned out to be 1.11; the “Amount of formed formazan, Solution 10 (a group of a drug combination)” value (shortened to “Amount of formed formazan”) is listed as 111 ± 1.3 # %; the “Relative index of Solution 8 (Test Compound alone)” value came to 0.99.
For the compound `CC(C)c1sc(N(C)Cc2cccnc2)nc1-c1ccc(OCCCCCOc2ccc(/C(N)=N/O)cc2)cc1` [Compound 12, N-hydroxy-4-{5-[4-(5-isopropyl-2-(methyl(pyridin-3-yl-methyl)amino)-1,3-thiazol-4-yl)phenoxy]pentoxy}benzamidine], the activity at 0.02 µM is 105 ± 3%; the “Relative index of Solution 10 (a group of a drug combination)” value is recorded as 1.15; the “Amount of formed formazan” value was 115 ± 4.3 # %; the “Relative index of Solution 8 (Test Compound alone)” value is 1.05.
Take `CCCCc1sc(N(C)CCN2CCOCC2)nc1-c1ccc(OCCCCCOc2ccc(/C(N)=N/O)cc2)cc1` [Compound 13, N-hydroxy-4-{5-[4-(5-butyl-2-(methyl(2-(4-morpholino)ethyl)amino)-1,3-thiazol-4-yl)phenoxy]pentoxy}benzamidine]: the activity at 0.02 µM came to 103 ± 5.2%; the “Relative index of Solution 10 (a group of a drug combination)” value is 1.13; the “Amount of formed formazan” value is given as 113 ± 2.1 # %; the “Relative index of Solution 8 (Test Compound alone)” value was determined as 1.03.
Turning to `CCCN(CCC)c1nc(-c2ccc(OCCCCCOc3ccc(/C(N)=N/O)cc3)cc2)c(CC2CCCC2)s1` [Compound 14, N-hydroxy-4-{5-[4-(5-cyclopentylmethyl-2-dipropylamino-1,3-thiazol-4-yl)phenoxy]pentoxy}benzamidine], the activity at 0.02 µM was 103 ± 2.5%; the “Relative index of Solution 10 (a group of a drug combination)” value is 1.13; the “Amount of formed formazan” value was 113 ± 1.3 # %; the “Relative index of Solution 8 (Test Compound alone)” value came to 1.03.
In the same order, the values of `CN(CCN1CCOCC1)c1nc(-c2ccc(OCCCCCOc3ccc(/C(N)=N/O)cc3)cc2)c(C2CCCC2)s1` [Compound 15, N-hydroxy-4-{5-[4-(5-cyclopentyl-2-(methyl(2-(4-morpholino)ethyl)amino)-1,3-thiazol-4-yl)phenoxy]pentoxy}benzamidine] are 103 ± 3%, 1.15, 115 ± 0.8 ## % and 1.03.
The corresponding values for `CCCN(CCC)c1nc(-c2ccc(OCCCCCOc3ccc(/C(N)=N/O)cc3)cc2)c(C(C)C)s1` [Compound 16, N-hydroxy-4-{5-[4-(5-isopropyl-2-dipropylamino-1,3-thiazol-4-yl)phenoxy]pentoxy}benzamidine] are 107 ± 1.3%, 1.18, 118 ± 3.7 # % and 1.07.
For `CC(C)c1sc(N(C)C)nc1-c1ccc(OCCCCCOc2ccc(/C(N)=N/O)cc2)cc1` [Compound 17, N-hydroxy-4-{5-[4-(5-isopropyl-2-dimethylamino-1,3-thiazol-4-yl)phenoxy]pentoxy}benzamidine], the activity at 0.02 µM stood at 97 ± 1.3%; the “Relative index of Solution 10 (a group of a drug combination)” value was found to be 1.13; the “Amount of formed formazan” value was 113 ± 1.7 # %; the “Relative index of Solution 8 (Test Compound alone)” value is 0.97.
The corresponding values for `Cc1nc(-c2ccc(OCCCCC(=O)Nc3ccc(/C(N)=N/O)cc3)cc2)c(C(C)C)s1` [Compound 18, N-hydroxy-4-{5-[4-(5-isopropyl-2-methyl-1,3-thiazol-4-yl)phenoxy]pentanoylamino}benzamidine] are 106 ± 5%, 1.15, 115 ± 3.0 ## % and 1.06.
With `Cc1nc(-c2ccc(OCCCCCN(C)c3ccc(/C(N)=N/O)cc3)cc2)c(C(C)C)s1` [Compound 19, N-hydroxy-4-{5-[4-(5-isopropyl-2-methyl-1,3-thiazol-4-yl)phenoxy]pentylmethylamino}benzamidine], the activity at 0.02 µM turned out to be 108 ± 2.7%; the “Relative index of Solution 10 (a group of a drug combination)” value amounted to 1.19; the “Amount of formed formazan” value is recorded as 119 ± 4.8 # %; the “Relative index of Solution 8 (Test Compound alone)” value was 1.08.
For the compound `Cc1nc(-c2ccc(OCCCCCOc3ccc(/C(N)=N/O)c(F)c3)cc2)c(C(C)C)s1` [Compound 20, N-hydroxy-2-fluoro-4-{5-[4-(5-isopropyl-2-methyl-1,3-thiazol-4-yl)phenoxy]pentoxy}benzamidine], the activity at 0.02 µM was 106 ± 3.1%; the “Relative index of Solution 10 (a group of a drug combination)” value was determined as 1.13; the “Amount of formed formazan” value was 113 ± 1.0 ## %; the “Relative index of Solution 8 (Test Compound alone)” value amounted to 1.06.
With `CCc1sc(C2CCCCC2)nc1-c1ccc(OCCCCOc2ccc(/C(N)=N/O)cc2)cc1` [Compound 21, N-hydroxy-4-{4-[4-(2-cyclohexyl-5-ethyl-1,3-thiazol-4-yl)phenoxy]butoxy}benzamidine], the activity at 0.02 µM was 105 ± 2.5%; the “Relative index of Solution 10 (a group of a drug combination)” value is 1.11; the “Amount of formed formazan” value is on record as 111 ± 1.7 # %; the “Relative index of Solution 8 (Test Compound alone)” value was 1.05.
The corresponding values for `Cc1nc(-c2ccc(OCc3cccc(COc4ccc(/C(N)=N/O)cc4)c3)cc2)c(C(C)C)s1` [Compound 22, N-hydroxy-4-{3-[4-(5-isopropyl-2-methyl-1,3-thiazol-4-yl)phenoxymethyl]benzyloxy}benzamidine] are 110 ± 4.1%, 1.22, 122 ± 2.1 ## % and 1.10.
The corresponding values for `Cc1nc(-c2ccc(OCCCCCOc3ccc(/C(N)=N/O)cc3)cc2)c(CCn2ccnc2)s1` [Compound 23, N-hydroxy-4-{5-[4-(5-(2-(imidazol-1-yl)ethyl)-2-methyl-1,3-thiazol-4-yl)phenoxy]pentoxy}benzamidine] are 107 ± 5.5%, 1.23, 123 ± 10.2 # % and 1.07.
In the same order, the values of `Cc1nc(-c2ccc(OCCCCCOc3ccc(/C(N)=N/O)cc3)cc2)c(CCNC(C)C)s1` [Compound 24, N-hydroxy-4-{5-[4-(5-(2-(isopropylamino)ethyl)-2-methyl-1,3-thiazol-4-yl)phenoxy]pentoxy}benzamidine] are 110 ± 4.4%, 1.18, 118 ± 2.9 ## % and 1.10.
In the case of `Cc1nc(-c2ccc(OCCCCCOc3ccc(/C(N)=N/O)cc3)cc2)c(CCNCCCOC(C)C)s1` [Compound 25, N-hydroxy-4-{5-[4-(5-(2-(3-(isopropoxy)propylamino)ethyl)-2-methyl-1,3-thiazol-4-yl)phenoxy]pentoxy}benzamidine], the activity at 0.02 µM worked out at 101 ± 3.2%; the “Relative index of Solution 10 (a group of a drug combination)” value turned out to be 1.12; the “Amount of formed formazan” value is given as 112 ± 1.5 # %; the “Relative index of Solution 8 (Test Compound alone)” value is given as 1.01.
In the same order, the values of `CCN(CC)CCc1sc(C)nc1-c1ccc(OCCCCCOc2ccc(/C(N)=N/O)cc2)cc1` [Compound 26, N-hydroxy-4-{5-[4-(5-(2-diethylaminoethyl)-2-methyl-1,3-thiazol-4-yl)phenoxy]pentoxy}benzamidine] are 102 ± 2.6%, 1.13, 113 ± 2.7 # % and 1.02.
